Results reported in US20200297798A1, “KEY AMINO ACID SITES […] EXPORT OF NUC[…] INFLUENZA A AND B VIRUSES AND USE THEREOF AS ANTI-INFLUENZA VIRUS DRUG TARGETS” (INSTITUTE OF MICROBIOLOGY, CHINESE ACADEMY OF SCIENCES, priority 2017, published 2020).
Values joined by “and” are separate entries in the source; they are usually repeats but may differ in a detail not shown here. Equal values may be shown once. Read-outs that look alike come from different tables or passages of the source.

Columns and labels:
[1] = system: influenza A virus WSN A/WSN/1933 (H1N1); set-up: species or system BALB/c mice; conditions: mouse, in vivo
binding of ANP to CRM1 = binding of ANP to CRM1 (Influenza A virus, UniProt P15682)
[2] = system: influenza A virus WSN A/WSN/1933 (H1N1); conditions: A549 cells, MOI=0.1, 12 ng naproxen per dish, FIG. 8A
[3] = target: influenza B virus nucleoprotein (BNP) (Influenza B virus, UniProt P04665); conditions: ITC; protein BNP
influenza B virus Lee40 [4] = conditions: A549 cells, MOI=1, 12 ng naproxen per dish, FIG. 8B
influenza B virus Lee40 [5] = system: influenza B virus Lee40; set-up: species or system BALB/c mice; conditions: mouse, in vivo
binding of BNP to CRM1 = binding of BNP to CRM1 (Influenza B virus, UniProt P04665)
[6] = target: influenza A virus nucleoprotein (ANP) (Influenza A virus, UniProt P15682); conditions: ITC; protein ANP
Chain of influenza A virus nucleoprotein (ANP) (P15682 whole entry): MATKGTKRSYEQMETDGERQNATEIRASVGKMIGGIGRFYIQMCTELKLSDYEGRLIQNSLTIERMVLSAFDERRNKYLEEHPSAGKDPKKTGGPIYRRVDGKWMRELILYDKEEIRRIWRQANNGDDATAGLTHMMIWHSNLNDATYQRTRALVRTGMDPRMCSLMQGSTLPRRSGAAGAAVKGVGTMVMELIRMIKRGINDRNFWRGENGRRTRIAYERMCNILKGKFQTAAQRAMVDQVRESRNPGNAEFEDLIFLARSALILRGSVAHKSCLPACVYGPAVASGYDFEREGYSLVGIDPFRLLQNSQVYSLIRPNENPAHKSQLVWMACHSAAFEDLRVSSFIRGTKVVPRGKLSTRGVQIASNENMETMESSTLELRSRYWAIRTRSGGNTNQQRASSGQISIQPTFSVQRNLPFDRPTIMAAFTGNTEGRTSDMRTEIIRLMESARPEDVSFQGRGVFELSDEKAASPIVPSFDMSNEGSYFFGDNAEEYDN

Chain of influenza B virus nucleoprotein (BNP) (P04665 whole entry): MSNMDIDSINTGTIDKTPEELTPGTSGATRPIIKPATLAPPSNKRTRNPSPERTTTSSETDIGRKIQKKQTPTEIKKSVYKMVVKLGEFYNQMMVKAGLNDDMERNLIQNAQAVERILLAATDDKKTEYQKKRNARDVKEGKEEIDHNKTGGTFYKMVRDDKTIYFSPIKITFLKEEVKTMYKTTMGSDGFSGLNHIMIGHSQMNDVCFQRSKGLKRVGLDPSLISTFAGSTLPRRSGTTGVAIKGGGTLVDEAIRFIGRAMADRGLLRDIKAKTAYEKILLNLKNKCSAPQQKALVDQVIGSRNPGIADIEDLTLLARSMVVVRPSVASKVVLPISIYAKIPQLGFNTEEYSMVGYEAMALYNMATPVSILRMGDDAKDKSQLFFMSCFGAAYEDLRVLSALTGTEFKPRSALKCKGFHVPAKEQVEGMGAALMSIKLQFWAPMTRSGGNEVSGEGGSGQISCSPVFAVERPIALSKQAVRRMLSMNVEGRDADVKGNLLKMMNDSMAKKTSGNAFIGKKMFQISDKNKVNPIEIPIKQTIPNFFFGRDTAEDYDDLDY
Chain of binding of BNP to CRM1 (P04665 whole entry): as above
Chain of binding of ANP to CRM1 (P15682 whole entry): as the sequence (P15682 whole entry) above

| Structure (SMILES) | body weight course after infection [1] | lung injuries (macroscopical lesions) [1] | viral load of the lung, treatment effect [1] | binding of ANP to CRM1 (binding of ANP to CRM1) | virus titer versus untreated cells [2] | n (stoichiometry) [3] | ΔH [3] | ΔS [3] | virus titer versus untreated cells (influenza B virus Lee40 [4]) | body weight course after infection (influenza B virus Lee40 [5]) | lung injuries (macroscopical lesions) (influenza B virus Lee40 [5]) | viral load of the lung, treatment effect (influenza B virus Lee40 [5]) | survival rate (influenza B virus Lee40 [5]; ip) | binding of BNP to CRM1 (binding of BNP to CRM1) | n (stoichiometry) [6] | ΔH [6] | ΔS [6] | lung index (lung mass/body weight) [1] | survival rate [1] | survival rate (influenza B virus Lee40 [5]) |
| --- | --- | --- | --- | --- | --- | --- | --- | --- | --- | --- | --- | --- | --- | --- | --- | --- | --- | --- | --- | --- |
| COc1ccc2cc(C(C)C(=O)O)ccc2c1 (stereo not drawn) [naproxen, (+) α-methyl-6-methoxy-2-naphthaleneacetic acid] | slowly recovered | lung injuries were milder | better | did not bind to CRM1 | significant decrease in virus titer | 0.93 | -0.325 kcal/mol | 138.40 J/mol · K | significant decrease in virus titer | slowly recovered | lung injuries were milder | better | 75% and 100% | did not bind to CRM1 | 1.23 | -1.33 kcal/mol | 64.76 J/mol · K | – | – | – |
| CCOC(=O)C1=C[C@@H](OC(CC)CC)[C@H](NC(C)=O)[C@@H](N)C1 [oseltamivir] | slowly recovered | lung injuries were milder | better | – | – | – | – | – | – | slowly recovered | – | – | – | – | – | – | – | lung indexes were lower | 100% | 37.5% |
